From article PMC2792877 (Biochemistry, 2008)

Biological target: pa-FPR (Pseudomonas aeruginosa, UniProt Q9HYK7)
Assay: 1H-15N HSQC NMR titration, […] fit
Format: binding

Chain of pa-FPR (Q9HYK7 whole entry): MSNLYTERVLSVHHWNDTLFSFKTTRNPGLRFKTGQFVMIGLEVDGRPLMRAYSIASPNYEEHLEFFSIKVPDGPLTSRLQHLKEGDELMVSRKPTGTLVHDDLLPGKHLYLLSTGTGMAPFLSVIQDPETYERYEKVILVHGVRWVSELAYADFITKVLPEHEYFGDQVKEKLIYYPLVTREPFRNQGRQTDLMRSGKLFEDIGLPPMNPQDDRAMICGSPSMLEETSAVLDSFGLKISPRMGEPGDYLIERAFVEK

NC(=O)c1ccc[n+]([C@@H]2O[C@H](COP(=O)(O)OP(=O)(O)OC[C@H]3O[C@@H](n4cnc5c(N)ncnc54)[C@H](OP(=O)(O)O)[C@@H]3O)[C@@H](O)[C@H]2O)c1 [NADP^+]
Kd: 24 µM
